The structures appear in SMILES notation. Numbers after ± are expanded uncertainties.

The text below walks through data of the NIST ThermoML archive (doi:10.1016/j.jct.2016.05.005).

A short description of data set [1]: Molar enthalpy of transition or fusion. The note with it: Crystal; DSC.
The conditions of data set [2]: Crystal; DTA.

With `COC(=O)N(OC)c1ccccc1COc1ccn(-c2ccc(Cl)cc2)n1` [Pyraclostrobin], the “Molar enthalpy of transition or fusion” value in data set [1] stood at 7.42 ± 0.311 kcal/mol. Further, the Normal melting temperature in data set [2] amounted to 60.6 ± 0.6 °C.
